Literature values, collected in US20080004295A1, “NOVEL COMPOUNDS” (priority 2005, published 2008).

Tests used:
[1] = test system: PGD2; settings: dosed intranasally, phase I/II study, allergic rhinitis
[2] = phase II clinical trial, allergic rhinitis

Oc1cccc(Nc2ncc(F)c(Nc3cccc(O)c3)n2)c1 [Example R112]
change in PGD2 [1]: statistically significant decrease
safety across a range of indicators [1]: safe
efficacy versus placebo [2]: lack of efficacy
